Data published in patent US6716851B2, “Substituted 2-aryl-4-arylaminopyrimidines and analogs as activators or caspases and inducers of apoptosis and the use thereof” (Cytovia, Inc., priority 2000, dated 2004).
Like-named read-outs stand apart in the source and are kept apart here.

Legend:
ZR-75-1 cells [1] = assay: Caspase cascade activation (N-(Ac-DEVD)-N'-ethoxycarbonyl-R110 fluorogenic substrate) in ZR-75-1 cells; type: cell-based, Human; conditions: ZR-75-1, 48 h incubation
Outline: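 EC50 comes from sigmoidal fitting of the net RFU ratio over DMSO control, read at ex 485/em 530 nm 3 h after adding 14 μM Ac-DEVD-R110 in lysolecithin/DTT/PIPES pH 7.2 buffer. Compound (0.016-10 μM final) was applied to cells for 48 h at 37 °C beforehand.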

T-47D cells = assay: Cell proliferation assay (GI50) in T-47D cells; type: cell-based; conditions: Homo sapiens, T47D, 48 h
Procedure: (§1) T-47D cells were grown and harvested as in Example 221. An aliquot of 90 μl of cells (2.2×10^4 cells/ml) was added to a well of a 96-well microtiter plate containing 10 μl of a 10% DMSO in RPMI-1640 media solution containing 1 nM to 100 μM of 4-(3-methoxyanilino)-2-(2-pyridinyl)-6-(trifluoromethyl)pyrimidine (0.1 nM to 10 μM final). An aliquot of 90 μl of cells was added to a well of a 96-well microtiter plate containing 10 μl of a 10% DMSO in RPMI-1640 media solution without compound as the control sample for maximal cell proliferation (AMax). The samples were mixed by agitation and then incubated at 37° C. for 48 h in a 5% CO2-95% humidity incubator. After incubation, the samples were removed from the incubator and 20 μl of CellTiter 96 AQueous One Solution Cell Proliferation^TM reagent (Promega) was added. The samples were mixed by agitation and incubated at 37° C. for 2-4 h in a 5% CO2-95% humidity incubator. Using an absorbance plate reader (Model 1420 Wallac Instruments), an initial reading (T=0) was made approximately 1-2 min after addition of the solution, employing absorbance at 490 nm. This determines the possible background absorbance of the test compounds. No absorbance for 4-(3-methoxyanilino)-2-(2-pyridinyl)-6-(trifluoromethyl)pyrimidine was found at 490 nm. After the 2-4 h incubation, the samples were read for absorbance as above (ATest). […]

ZR-75-1 cells [2] = assay: Cell proliferation assay (GI50) in ZR-75-1 cells; type: cell-based; conditions: Homo sapiens; ZR 75-1, 48 h
Procedure: [Worded in the source for another cell line; this cell line is reported under the same test.] as §1

MDA-MB-435 cells = assay: Cell proliferation assay (GI50) in MDA-MB-435 cells; type: cell-based; conditions: Homo sapiens, MDA-MB-435, 48 h
Procedure: [Worded in the source for another cell line; this cell line is reported under the same test.] as §1

SK-Br-3 cells = assay: Cell proliferation assay (GI50) in SK-Br-3 cells; type: cell-based; conditions: Homo sapiens, SK-BR-3, 48 h
Procedure: [Worded in the source for another cell line; this cell line is reported under the same test.] as §1

[3] = tested on: PC-3 (prostate cancer cell line); assay: Cell proliferation assay (GI50) in PC-3 cells; type: cell-based; conditions: Homo sapiens, PC-3, 48 h
Procedure: [Worded in the source for another cell line; this cell line is reported under the same test.] as §1

[4] = tested on: Panc-1 (pancreatic cancer cell line); assay: Cell proliferation assay (GI50) in Panc-1 cells; type: cell-based; conditions: Homo sapiens, PANC-1, 48 h
Procedure: [Worded in the source for another cell line; this cell line is reported under the same test.] as §1

[5] = tested on: SW620 (colorectal cancer cell line); assay: Cell proliferation assay (GI50) in SW620 cells; type: cell-based; conditions: Homo sapiens, SW-620; SW620, 48 h
Procedure: [Worded in the source for another cell line; used here, by the source, with some conditions changed.] as §1

EC50 (ZR-75-1 cells [1]; Homo sapiens, caspase activation potency): 0.14 µM
GI50 (T-47D cells; T-47D, Table II, read-out: GI50): 30 nM
GI50 (T-47D cells; Table III, read-out: GI50(nM) T47D): 30 nM
GI50 (MDA-MB-435 cells): 4500 nM
GI50 (SK-Br-3 cells): 60 nM
GI50 [3]: > 10000 nM
GI50 [4]: > 10000 nM
GI50 [5]: > 10000 nM
SMILES: COc1cccc(Nc2cc(C(F)(F)F)nc(-c3ccccn3)n2)c1 [Compound A, 4-(3-methoxyanilino)-2-(2-pyridinyl)-6-(trifluoromethyl)pyrimidine]
ZR Ratio 48 hr (ZR-75-1 cells [1]; caspase activity: ratio of net RFU of test compound to control): 3.6
GI50 (ZR-75-1 cells [2]): 100 nM
